Results taken from patent US7084275B2, “Stereospecific enrichment of heterocyclic enantiomers” (R. T. Alamo Ventures I, LLC, priority 2001, dated 2006).

Key:
[1] = tested on: PDE1 partially purified from bovine heart; experiment: PDE1 biochemical enzyme assay ([3H]cAMP hydrolysis); settings: 100 μM test substance; 1.0 μM [3H]cAMP, calmodulin, Tris pH 7.5, 20 min, 30° C.
Text: (§1) In this example, racemic flosequinan, (R)-(+)-flosequinan, and (S)-(−)-flosequinan were subjected to biochemical enzyme assays to determine their respective percent inhibition of a variety of phosphodiesterases (PDE1-PDE6). The (R)-(+)-flosequinan and (S)-(−)-flosequinan used in this example was resolved by high-performance liquid chromatography (HPLC) as follows. A 5.0 g sample of a racemic mixture of flosequinan was resolved over a 10 cm ID×50 cm L CHIRALCEL OD HPLC column (Chiral Technologies, Exton, Pa.) at 25° C. and with a flow rate of 1.0 ml/minute such that the column pressure was 37 bar. The mobile phase employed was 100% methanol and the detection of the mixture was performed at 270 nm. […] A total of 2.1 g of the (−) enantiomer having an optical purity greater than 99% was produced. A total of 2.3 g of the (+) enantiomer having an optical purity greater than 99% was produced.
(§2) PDE1: PDE1 partially purified from bovine heart was used. A racemic mixture of flosequinan, and each enantiomer of flosequinan, all at a molar concentration of 100 μM, were independently incubated with 13 μg PDE1 enzyme, 1.0 μM [^3H]cAMP and Cal2/calmodulin in Tris buffer pH 7.5 for 20 minutes at 30° C. The reaction was terminated by boiling for 2 minutes, and the resulting AMP was converted to adenosine by addition of 10 mg/ml snake venom nucleotidase and further incubation at 30° C. for 10 minutes. Unhydrolyzed cAMP was bound to AGI-X2 resin, and the remaining [^3H]adenosine in the aqueous phase was quantitated by scintillation counting.

[2] = target: T1, PDE2 partially purified from human platelets (Homo sapiens, UniProt O00408); experiment: PDE2 biochemical enzyme assay ([3H]cAMP hydrolysis); settings: 100 μM test substance; 25 μM cAMP, Tris pH 7.5, 20 min, 30° C.
T1 construct: PDE2 partially purified from human platelets was used; from tissue; host or cells: human platelets
Text: as §1
as §2, with “PDE2: PDE2” for “PDE1: PDE1”, “human platelets” for “bovine heart”, “23” for “13”, “PDE2” for “PDE1”, “25 μM cAMP containing 0.05” for “1.0”, “[^3H]cAMP” for “[^3H]cAMP and Cal2/calmodulin”

[3] = tested on: PDE4 partially purified from human U-937 pronocytic cells; experiment: PDE4 biochemical enzyme assay ([3H]cAMP hydrolysis); settings: 100 μM test substance; 1 μM cAMP, Tris pH 7.5, 20 min, 30° C.
Text: as §1
as §2, with “PDE4: PDE4” for “PDE1: PDE1”, “human U-937 pronocytic cells” for “bovine heart”, “20” for “13”, “PDE4 enzyme and 1 μM cAMP containing 0.01” for “PDE1 enzyme, 1.0”, “[^3H]cAMP” for “[^3H]cAMP and Cal2/calmodulin”

[4] = target: T2, PDE5 partially purified from human platelets (Homo sapiens, UniProt O76074); experiment: PDE5 biochemical enzyme assay ([3H]cGMP hydrolysis); settings: 100 μM test substance; 1 μM cGMP, Tris pH 7.5, 20 min, 30° C.
T2 construct: PDE5 partially purified from human platelets was used; from tissue; host or cells: human platelets
Text: as §1
PDE5: PDE5 partially purified from human platelets was used. A racemic mixture of flosequinan, and each enantiomer of flosequinan, all at a molar concentration of 100 μM, were independently incubated with 120 μg PDE5 enzyme and 1 μM cGMP containing 0.01 μM [^3H]cGMP in Tris buffer pH 7.5 for 20 minutes at 30° C. The reaction was terminated by boiling for 2 minutes, and the resulting GMP was converted to guanosine by addition of 10 mg/ml snake venom nucleotidase and further incubation at 30° C. for 10 minutes. Unhydrolyzed cGMP was bound to AGI-X2 resin, and the remaining [^3H]guanosine in the aqueous phase was quantitated by scintillation counting.

[5] = target: T3, PDE3 partially purified from human platelets (Homo sapiens, UniProt Q14432); experiment: PDE3 biochemical enzyme assay ([3H]cAMP hydrolysis); settings: 100 μM test substance; 1 μM cAMP, Tris pH 7.5, 20 min, 30° C.
T3 construct: PDE3 partially purified from human platelets was used; from tissue; host or cells: human platelets
Text: as §1
PDE3: PDE3 partially purified from human platelets was used. A racemic mixture of flosequinan, and each enantiomer of flosequinan, all at a molar concentration of 100 μM, were independently incubated with 13 μg PDE3 enzyme and 1 μM cAMP containing 0.01 μM [^3H]cAMP in Tris buffer pH 7.5 for 20 minutes at 30° C. […] Unhydrolyzed cAMP was bound to AGI-X2 resin, and the remaining [^3H]adenosine in the aqueous phase was quantitated by scintillation counting.

[6] = target: T4, PDE6 partially purified from bovine retinal rod and activated by trypsin (Bos taurus, UniProt P11541+P23439); experiment: PDE6 biochemical enzyme assay ([3H]cGMP hydrolysis); settings: 100 μM test substance; 100 μM cGMP, Tris pH 7.5, 20 min, 30° C.
T4 construct: from tissue; host or cells: bovine retinal rod
T4 sequence (P11541 2-856 limits assumed): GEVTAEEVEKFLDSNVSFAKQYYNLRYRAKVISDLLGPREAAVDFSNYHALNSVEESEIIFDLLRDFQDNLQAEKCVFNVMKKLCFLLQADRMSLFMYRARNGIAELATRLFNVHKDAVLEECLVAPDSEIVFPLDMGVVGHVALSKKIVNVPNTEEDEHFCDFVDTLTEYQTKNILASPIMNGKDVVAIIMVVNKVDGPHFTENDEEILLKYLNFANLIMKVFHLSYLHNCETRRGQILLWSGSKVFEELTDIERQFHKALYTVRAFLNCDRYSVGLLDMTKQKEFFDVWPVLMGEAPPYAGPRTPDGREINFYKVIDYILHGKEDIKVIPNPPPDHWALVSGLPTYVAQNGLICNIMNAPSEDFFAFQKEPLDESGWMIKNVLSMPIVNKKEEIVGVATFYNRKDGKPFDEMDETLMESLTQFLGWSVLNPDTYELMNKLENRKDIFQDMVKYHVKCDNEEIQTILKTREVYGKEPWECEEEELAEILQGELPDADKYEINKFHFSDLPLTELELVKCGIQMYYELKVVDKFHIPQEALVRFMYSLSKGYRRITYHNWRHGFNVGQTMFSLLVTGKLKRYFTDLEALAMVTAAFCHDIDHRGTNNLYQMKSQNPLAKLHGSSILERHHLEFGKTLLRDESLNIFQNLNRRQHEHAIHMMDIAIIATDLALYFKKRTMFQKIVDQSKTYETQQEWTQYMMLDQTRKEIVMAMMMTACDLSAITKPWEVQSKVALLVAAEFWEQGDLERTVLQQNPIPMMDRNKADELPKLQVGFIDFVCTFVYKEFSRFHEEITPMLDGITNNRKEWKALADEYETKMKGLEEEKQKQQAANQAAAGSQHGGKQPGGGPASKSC
T4 sequence (P23439 2-850 limits assumed): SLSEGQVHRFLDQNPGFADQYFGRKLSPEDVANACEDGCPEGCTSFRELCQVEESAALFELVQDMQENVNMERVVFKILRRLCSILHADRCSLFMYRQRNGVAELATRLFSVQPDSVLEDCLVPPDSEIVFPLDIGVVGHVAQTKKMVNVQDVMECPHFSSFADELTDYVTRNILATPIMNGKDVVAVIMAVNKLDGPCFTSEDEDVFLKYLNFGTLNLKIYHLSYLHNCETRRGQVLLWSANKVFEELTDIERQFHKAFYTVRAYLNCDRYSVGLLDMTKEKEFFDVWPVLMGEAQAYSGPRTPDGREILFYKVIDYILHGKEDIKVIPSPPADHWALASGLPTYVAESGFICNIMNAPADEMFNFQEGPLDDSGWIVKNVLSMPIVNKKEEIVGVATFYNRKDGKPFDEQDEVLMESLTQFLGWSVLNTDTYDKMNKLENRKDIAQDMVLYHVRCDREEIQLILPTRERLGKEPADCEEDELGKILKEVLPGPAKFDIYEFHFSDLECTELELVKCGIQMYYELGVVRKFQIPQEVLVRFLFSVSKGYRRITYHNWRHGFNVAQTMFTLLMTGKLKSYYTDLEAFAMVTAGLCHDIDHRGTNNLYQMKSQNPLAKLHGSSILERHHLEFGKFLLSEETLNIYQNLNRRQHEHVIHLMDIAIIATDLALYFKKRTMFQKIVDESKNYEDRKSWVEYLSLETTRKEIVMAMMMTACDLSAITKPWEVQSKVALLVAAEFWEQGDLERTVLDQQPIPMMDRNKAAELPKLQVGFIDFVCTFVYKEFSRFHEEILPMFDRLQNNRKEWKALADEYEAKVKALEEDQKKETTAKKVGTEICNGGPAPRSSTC
Text: as §1
PDE6: PDE6 partially purified from bovine retinal rod and activated by trypsin was used. A racemic mixture of flosequinan, and each enantiomer of flosequinan, all at a molar concentration of 100 μM, were independently incubated with 0.2 μg/ml active PDE6 and 100 μM cGMP containing 0.1 μM [^3H]cGMP in Tris buffer pH 7.5 for 20 minutes at 30° C. […] Unhydrolyzed cGMP was bound to AGI-X2 resin, and [^3H]guanosine remaining in the aqueous phase was quantitated by scintillation counting.

T1 sequence (O00408 whole entry): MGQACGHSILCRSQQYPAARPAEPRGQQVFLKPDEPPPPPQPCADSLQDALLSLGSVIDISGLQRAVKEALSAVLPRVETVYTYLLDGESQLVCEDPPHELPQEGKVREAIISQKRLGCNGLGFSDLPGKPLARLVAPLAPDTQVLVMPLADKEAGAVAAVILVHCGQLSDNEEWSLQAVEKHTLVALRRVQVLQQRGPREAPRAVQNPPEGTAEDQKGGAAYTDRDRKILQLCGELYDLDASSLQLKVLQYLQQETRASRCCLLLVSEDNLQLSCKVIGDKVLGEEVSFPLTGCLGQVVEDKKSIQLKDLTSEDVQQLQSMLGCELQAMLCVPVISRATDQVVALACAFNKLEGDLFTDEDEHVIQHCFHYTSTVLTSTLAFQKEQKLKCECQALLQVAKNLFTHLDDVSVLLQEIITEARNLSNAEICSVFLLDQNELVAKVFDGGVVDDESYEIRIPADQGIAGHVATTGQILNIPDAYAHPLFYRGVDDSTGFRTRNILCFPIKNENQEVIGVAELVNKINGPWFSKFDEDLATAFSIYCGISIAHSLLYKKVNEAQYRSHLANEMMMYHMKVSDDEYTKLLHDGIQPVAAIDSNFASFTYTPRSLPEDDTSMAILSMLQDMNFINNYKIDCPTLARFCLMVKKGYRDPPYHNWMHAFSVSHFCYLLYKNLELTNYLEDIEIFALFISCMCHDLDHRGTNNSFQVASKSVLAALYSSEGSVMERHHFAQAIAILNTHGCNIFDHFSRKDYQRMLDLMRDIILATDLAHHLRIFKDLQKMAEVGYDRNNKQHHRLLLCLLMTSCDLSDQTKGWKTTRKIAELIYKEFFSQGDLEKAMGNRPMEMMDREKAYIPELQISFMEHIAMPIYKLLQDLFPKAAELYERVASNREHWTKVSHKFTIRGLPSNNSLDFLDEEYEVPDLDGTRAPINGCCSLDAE
T3 sequence (Q14432 whole entry): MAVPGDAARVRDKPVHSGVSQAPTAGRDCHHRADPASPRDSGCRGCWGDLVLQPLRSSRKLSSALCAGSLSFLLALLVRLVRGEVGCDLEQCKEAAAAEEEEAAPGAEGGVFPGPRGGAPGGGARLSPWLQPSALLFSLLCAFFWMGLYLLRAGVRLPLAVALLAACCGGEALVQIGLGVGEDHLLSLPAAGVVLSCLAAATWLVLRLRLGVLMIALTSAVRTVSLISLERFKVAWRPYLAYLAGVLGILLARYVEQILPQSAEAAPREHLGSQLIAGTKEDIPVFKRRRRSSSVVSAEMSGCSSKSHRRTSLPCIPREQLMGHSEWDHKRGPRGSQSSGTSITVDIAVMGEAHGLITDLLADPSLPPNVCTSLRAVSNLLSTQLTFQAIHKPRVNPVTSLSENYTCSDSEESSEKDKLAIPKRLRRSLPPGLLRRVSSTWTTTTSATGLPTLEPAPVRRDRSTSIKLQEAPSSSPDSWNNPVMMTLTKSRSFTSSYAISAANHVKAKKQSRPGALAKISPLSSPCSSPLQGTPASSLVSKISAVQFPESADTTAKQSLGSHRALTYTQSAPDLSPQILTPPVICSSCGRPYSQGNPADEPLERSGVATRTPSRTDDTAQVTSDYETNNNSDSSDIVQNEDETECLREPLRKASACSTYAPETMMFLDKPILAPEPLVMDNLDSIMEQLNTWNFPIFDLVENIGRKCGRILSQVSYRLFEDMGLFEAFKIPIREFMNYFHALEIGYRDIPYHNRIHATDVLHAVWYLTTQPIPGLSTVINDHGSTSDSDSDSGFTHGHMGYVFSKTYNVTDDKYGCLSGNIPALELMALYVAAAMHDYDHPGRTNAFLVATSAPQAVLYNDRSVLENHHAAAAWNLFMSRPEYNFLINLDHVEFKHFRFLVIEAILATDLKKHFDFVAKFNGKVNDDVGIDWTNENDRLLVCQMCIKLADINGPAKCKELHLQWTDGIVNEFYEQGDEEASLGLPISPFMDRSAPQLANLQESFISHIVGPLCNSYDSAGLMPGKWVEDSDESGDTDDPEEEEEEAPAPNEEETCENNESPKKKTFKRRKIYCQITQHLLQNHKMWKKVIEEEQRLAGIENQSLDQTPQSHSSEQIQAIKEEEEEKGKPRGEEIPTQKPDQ

Compound | % Inhibition of PDE1 [1] [%] | inhibition at 100 µM [2] [%] | % Inhibition of PDE4 [3] [%] | inhibition at 100 µM [4] [%] | inhibition at 100 µM [5] [%] | % Inhibition of PDE6 [6] [%]
Cn1cc([S+](C)[O-])c(=O)c2ccc(F)cc21 (racemic) [racemic mixture of flosequinan, 7-fluoro-1-methyl-3-methylsulfinyl-4-quinolone, reference compound] | 31 | 18 | 24 | 11 | – | –
Cn1cc([S@@+](C)[O-])c(=O)c2ccc(F)cc21 [(+)-flosequinan, (R)-(+)-7-fluoro-1-methyl-3-methylsulfinyl-4-quinolone] | 28 | 18 | 6 | 17 | 32 | 22
Cn1cc([S@+](C)[O-])c(=O)c2ccc(F)cc21 [(−)-flosequinan, (S)-(−)-7-fluoro-1-methyl-3-methylsulfinyl-4-quinolone] | 11 | 13 | 1 | 10 | 5 | –
